Literature values in patent US20040248232A1, “Method for treating Alzheimer's dementia” (priority 2003, published 2004).

How the values were obtained:
[1] = molecular target: purified rat cathepsin L (Rattus norvegicus, UniProt P07154); settings: cited from earlier work
[2] = molecular target: T1, cathepsin L activity in liver (Mus musculus, UniProt P06797); settings: intraperitoneal injection, mice; cited from earlier work
T1 construct: host or cells: mouse liver (endogenous, in vivo dosing)

[3] = molecular target: purified rat cathepsin B (Rattus norvegicus, UniProt P00787); settings: at 10 uM; cited from earlier work
[4] = tested on: Colon-26 cancer cells; settings: intravenous or p.o. administration, mice; cited from earlier work
[5] = molecular target: T2, cathepsin K (Homo sapiens, UniProt P43235); settings: at micromolar levels; cited from earlier work
T2 sequence (P43235 115-329): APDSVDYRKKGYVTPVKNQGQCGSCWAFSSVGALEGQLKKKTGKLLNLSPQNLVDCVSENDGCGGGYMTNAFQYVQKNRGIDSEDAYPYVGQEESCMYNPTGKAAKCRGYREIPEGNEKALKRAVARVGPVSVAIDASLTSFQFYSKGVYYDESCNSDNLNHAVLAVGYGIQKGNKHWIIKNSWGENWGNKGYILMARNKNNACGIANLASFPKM

[6] = molecular target: T3, cathepsin S (Homo sapiens, UniProt P25774); settings: at micromolar levels; cited from earlier work
[7] = molecular target: T4, cathepsin B activity (Mus musculus, UniProt P10605); settings: intraperitoneal injection, mice; cited from earlier work
T4 construct: host or cells: mouse (liver implied by the sentence), endogenous, in vivo dosing

[8] = tested on: cancer induced osteoporosis; settings: intravenous or p.o. administration, mice; cited from earlier work
[9] = tested on: human melanoma cells A375; settings: intravenous or p.o. administration, mice; cited from earlier work
[10] = molecular target: cathepsin C (Homo sapiens, UniProt P53634); settings: at micromolar levels; cited from earlier work
[11] = molecular target: T5, cathepsin L activity in DLD-1 cells (Homo sapiens, UniProt P07711); settings: cited from earlier work
T5 construct: host or cells: DLD-1 cells (endogenous)

[12] = molecular target: cathespin B (Homo sapiens, UniProt P07858); settings: cited from earlier work
[13] = molecular target: cathepsin L (Homo sapiens, UniProt P07711); settings: relative to recombinant human cathepsin B; cited from earlier work
[14] = molecular target: T3, cathepsin S; settings: relative to recombinant human cathepsin B; cited from earlier work
[15] = molecular target: recombinant human cathepsin B (Homo sapiens, UniProt P07858); settings: cited from earlier work

T3 sequence (P25774 115-331, species assumed): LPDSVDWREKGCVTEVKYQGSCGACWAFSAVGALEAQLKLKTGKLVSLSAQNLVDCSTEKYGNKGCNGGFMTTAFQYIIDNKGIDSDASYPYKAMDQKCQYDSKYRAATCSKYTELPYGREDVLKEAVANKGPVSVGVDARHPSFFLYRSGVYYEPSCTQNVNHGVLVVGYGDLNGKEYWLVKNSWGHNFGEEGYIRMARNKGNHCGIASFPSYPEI
Chain of purified rat cathepsin L (P07154 114-334): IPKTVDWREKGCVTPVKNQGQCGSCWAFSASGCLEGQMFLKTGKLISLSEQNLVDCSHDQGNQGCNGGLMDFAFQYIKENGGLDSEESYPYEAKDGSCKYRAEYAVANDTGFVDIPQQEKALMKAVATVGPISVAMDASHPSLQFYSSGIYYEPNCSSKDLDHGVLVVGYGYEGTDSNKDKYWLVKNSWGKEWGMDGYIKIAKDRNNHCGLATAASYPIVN
T4 sequence (P10605 80-333): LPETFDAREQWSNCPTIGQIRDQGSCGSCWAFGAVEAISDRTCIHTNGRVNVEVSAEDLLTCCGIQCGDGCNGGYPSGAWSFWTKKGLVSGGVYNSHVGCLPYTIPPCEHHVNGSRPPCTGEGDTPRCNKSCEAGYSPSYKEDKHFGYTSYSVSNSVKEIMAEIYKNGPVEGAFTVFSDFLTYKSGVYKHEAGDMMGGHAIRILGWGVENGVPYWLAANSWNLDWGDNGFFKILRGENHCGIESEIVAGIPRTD
Chain of cathepsin C (P53634 25-463): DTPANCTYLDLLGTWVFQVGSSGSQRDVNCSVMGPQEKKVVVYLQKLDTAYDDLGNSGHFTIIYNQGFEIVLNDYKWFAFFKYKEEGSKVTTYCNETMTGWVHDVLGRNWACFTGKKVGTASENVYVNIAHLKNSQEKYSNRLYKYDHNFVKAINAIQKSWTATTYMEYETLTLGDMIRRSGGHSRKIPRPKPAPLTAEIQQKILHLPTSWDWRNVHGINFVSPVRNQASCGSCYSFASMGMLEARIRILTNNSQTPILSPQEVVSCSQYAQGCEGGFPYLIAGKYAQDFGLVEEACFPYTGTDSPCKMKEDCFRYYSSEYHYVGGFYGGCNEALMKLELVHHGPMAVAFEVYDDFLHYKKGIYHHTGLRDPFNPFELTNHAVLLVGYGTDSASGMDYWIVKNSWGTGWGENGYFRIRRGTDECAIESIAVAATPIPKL
T5 sequence (P07711 114-333): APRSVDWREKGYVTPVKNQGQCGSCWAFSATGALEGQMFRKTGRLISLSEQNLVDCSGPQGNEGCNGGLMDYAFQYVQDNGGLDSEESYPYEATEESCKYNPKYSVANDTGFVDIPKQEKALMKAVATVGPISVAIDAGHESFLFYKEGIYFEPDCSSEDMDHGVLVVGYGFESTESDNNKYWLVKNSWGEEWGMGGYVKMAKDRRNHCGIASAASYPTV
Chain of cathepsin L (P07711 114-333, species assumed): as the sequence (P07711 114-333) above
T1 sequence (P06797 114-334): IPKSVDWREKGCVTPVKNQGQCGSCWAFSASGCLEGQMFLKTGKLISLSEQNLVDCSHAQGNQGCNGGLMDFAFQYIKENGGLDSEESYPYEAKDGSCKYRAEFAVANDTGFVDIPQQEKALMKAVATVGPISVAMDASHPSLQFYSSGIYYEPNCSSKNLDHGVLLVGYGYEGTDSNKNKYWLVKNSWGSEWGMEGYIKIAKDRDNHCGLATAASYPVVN
Chain of purified rat cathepsin B (P00787 80-333): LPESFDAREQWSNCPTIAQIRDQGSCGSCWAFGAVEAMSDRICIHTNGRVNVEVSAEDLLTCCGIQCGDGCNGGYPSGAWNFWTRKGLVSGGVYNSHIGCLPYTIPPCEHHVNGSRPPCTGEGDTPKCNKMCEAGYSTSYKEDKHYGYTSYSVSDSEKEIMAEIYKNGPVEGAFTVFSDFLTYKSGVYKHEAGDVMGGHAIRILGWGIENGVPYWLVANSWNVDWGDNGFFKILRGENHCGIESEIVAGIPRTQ

Compound: CN(C)C(=O)[C@H](Cc1ccccc1)NC(=O)C1OC1C(=O)NCCc1ccccn1 (stereo in doubt) [CLIK-148]
- inhibition of purified rat cathepsin L activity ([1]; at 1 uM): completely inhibited
- level at which purified rat cathepsin L activity is inhibited [1]: submicromolar levels
- cathepsin L activity in liver [2]: dose dependently inhibited
- effect on purified rat cathepsin B activity [3]: no effect
- bone metastasis of Colon-26 cancer cells [4]: blocked bone metastasis
- activity on cathepsin K [5]: minimal activities
- activity on cathepsin S [6]: minimal activities
- cathepsin B activity [7]: no effect
- cancer induced osteoporosis [8]: blocked cancer induced osteoporosis
- bone metastasis of human melanoma cells A375 [9]: blocked bone metastasis
- activity on cathepsin C [10]: minimal activities

Compound: CC(C)C[C@H](NC(=O)[C@H]1CCCN1C#N)C(=O)OCc1ccccc1 [1-cyano-(D)-prolylleucine benzyl ester]
- cathepsin L activity in DLD-1 cells [11]: completely inhibited
- activity on cathespin B [12]: minimal activity

Compound: Cc1cccc(C[C@H](NC(=O)c2ccc(F)cc2F)C(=O)N[C@@H](C#N)COCc2cccc(C(=O)O)c2)c1 [N-[2-[(3-Carboxyphenyl)methoxyl-1-(S)-cyanoethyl]-3-methyl-N-(2,4-difluorobenzoyl)-L-phenylalaninamide]
- fold less potent in blocking cathepsin L than cathepsin B [13]: approximately 100 fold
- fold less potent in blocking cathepsin S than cathepsin B [14]: approximately 100 fold
- recombinant human cathepsin B activity [15]: inhibit
